# Results reported in ChEMBL document CHEMBL5465560, “Selectivity Literature for EUbOPEN Chemogenomic Library” (2024).
# Assays:
# [1] = biological target: Epithelial discoidin domain-containing receptor 1 (Homo sapiens) (UniProt Q08345); assay: Selectivity interaction (KinomeScan (DiscoverX)) EUB0001049a DDR1; conditions: at 1 µM
# [2] = biological target: T1, Tyrosine-protein kinase ABL1 (Homo sapiens, UniProt P00519); assay: Selectivity interaction (ActivX KiNativ screen (kinase selectivity in THP-1 cell lysates)) EUB0000639a ABL1; format: subcellular; conditions: lysate, at 1 µM
# T1 sequence (P00519 whole entry): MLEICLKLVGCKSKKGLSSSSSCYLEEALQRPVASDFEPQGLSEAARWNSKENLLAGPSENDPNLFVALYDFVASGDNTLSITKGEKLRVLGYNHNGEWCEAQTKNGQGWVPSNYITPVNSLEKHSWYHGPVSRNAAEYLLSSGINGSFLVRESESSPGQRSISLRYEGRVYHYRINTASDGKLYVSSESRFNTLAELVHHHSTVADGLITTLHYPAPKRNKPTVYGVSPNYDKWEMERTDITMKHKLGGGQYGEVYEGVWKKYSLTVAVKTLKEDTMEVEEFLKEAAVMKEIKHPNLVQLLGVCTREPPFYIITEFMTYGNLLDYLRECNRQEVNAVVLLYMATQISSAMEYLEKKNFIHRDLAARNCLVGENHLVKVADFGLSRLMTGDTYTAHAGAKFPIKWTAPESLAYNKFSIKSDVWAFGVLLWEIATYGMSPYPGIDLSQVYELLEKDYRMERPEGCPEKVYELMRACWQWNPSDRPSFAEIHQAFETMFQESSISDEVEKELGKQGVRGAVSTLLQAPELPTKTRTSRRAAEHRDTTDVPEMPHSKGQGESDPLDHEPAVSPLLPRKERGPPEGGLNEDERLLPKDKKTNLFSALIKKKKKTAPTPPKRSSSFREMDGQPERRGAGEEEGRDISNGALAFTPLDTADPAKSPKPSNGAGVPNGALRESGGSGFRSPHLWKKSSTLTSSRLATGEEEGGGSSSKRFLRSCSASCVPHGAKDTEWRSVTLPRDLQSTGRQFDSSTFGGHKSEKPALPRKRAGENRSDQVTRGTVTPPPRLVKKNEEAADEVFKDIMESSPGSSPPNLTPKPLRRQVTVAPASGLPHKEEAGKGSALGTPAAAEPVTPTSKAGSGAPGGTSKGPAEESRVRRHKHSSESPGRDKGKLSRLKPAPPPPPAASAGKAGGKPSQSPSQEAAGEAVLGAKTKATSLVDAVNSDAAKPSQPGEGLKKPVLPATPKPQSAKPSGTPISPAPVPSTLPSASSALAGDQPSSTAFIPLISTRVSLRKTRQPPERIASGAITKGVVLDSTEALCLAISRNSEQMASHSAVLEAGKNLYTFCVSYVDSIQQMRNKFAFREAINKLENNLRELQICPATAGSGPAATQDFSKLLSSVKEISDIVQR
# [3] = biological target: T2, Serine/threonine-protein kinase TAO3 (Homo sapiens) (UniProt Q9H2K8); assay: Selectivity interaction (ActivX KiNativ screen (kinase selectivity in THP-1 cell lysates)) EUB0000639a TAOK3; format: subcellular; conditions: lysate
# T2 sequence (whole entry): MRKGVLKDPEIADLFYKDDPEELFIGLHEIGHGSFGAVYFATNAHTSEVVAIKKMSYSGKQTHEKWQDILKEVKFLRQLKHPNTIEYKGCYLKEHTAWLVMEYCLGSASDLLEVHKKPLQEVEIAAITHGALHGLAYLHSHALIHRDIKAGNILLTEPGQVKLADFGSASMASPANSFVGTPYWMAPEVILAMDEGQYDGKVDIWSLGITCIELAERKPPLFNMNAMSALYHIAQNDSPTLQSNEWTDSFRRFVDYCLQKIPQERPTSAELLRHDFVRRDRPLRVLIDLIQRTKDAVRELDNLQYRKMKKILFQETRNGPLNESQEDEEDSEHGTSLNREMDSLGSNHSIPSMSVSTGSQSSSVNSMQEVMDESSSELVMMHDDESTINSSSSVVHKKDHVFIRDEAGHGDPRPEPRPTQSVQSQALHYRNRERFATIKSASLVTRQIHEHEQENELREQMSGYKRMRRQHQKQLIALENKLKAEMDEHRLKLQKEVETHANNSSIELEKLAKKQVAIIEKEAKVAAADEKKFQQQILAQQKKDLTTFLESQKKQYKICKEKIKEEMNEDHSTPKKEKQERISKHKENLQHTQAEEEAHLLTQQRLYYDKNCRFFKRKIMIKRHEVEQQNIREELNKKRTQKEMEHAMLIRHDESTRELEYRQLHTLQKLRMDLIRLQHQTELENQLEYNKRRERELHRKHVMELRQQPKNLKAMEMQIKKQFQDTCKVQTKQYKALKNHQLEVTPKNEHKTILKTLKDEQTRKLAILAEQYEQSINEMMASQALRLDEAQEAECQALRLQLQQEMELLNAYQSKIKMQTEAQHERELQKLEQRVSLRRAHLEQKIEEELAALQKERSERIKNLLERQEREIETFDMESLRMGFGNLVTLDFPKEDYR
# [4] = biological target: T1, Tyrosine-protein kinase ABL1; assay: Selectivity interaction (KinomeScan (DiscoverX)) EUB0000045b ABL1; conditions: at 1 µM
# [5] = biological target: T3, Peripheral plasma membrane protein CASK (Homo sapiens) (UniProt O14936); assay: Selectivity interaction (Kinase panel (DSF assay)) EUB0001559a CASK
# T3 sequence (whole entry): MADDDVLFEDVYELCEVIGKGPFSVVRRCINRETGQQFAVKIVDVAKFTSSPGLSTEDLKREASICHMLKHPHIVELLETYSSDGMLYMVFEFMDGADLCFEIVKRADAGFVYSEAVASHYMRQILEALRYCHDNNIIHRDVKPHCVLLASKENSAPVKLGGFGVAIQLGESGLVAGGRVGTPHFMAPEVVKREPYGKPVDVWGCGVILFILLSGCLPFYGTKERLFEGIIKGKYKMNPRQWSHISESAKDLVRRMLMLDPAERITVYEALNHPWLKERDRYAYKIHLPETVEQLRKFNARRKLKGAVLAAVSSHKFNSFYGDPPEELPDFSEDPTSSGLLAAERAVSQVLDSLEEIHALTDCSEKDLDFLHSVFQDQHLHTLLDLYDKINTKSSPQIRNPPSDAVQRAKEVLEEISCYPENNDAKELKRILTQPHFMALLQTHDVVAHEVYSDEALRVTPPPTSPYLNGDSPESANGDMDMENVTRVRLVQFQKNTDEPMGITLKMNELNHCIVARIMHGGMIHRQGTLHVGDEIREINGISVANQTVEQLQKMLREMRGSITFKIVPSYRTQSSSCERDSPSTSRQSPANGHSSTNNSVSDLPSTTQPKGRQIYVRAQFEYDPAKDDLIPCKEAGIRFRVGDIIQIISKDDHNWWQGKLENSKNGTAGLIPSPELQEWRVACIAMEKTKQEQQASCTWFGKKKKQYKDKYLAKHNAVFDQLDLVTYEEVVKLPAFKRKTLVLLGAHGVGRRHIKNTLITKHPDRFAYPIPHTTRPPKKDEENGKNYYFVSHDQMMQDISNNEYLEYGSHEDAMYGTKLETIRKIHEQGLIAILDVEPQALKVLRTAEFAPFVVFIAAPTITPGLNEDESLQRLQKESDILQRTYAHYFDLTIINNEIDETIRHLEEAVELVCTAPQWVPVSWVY
# Epithelial discoidin domain-containing receptor 1 (Homo sapiens), sequence (Q08345 whole entry, the tested form may be a part): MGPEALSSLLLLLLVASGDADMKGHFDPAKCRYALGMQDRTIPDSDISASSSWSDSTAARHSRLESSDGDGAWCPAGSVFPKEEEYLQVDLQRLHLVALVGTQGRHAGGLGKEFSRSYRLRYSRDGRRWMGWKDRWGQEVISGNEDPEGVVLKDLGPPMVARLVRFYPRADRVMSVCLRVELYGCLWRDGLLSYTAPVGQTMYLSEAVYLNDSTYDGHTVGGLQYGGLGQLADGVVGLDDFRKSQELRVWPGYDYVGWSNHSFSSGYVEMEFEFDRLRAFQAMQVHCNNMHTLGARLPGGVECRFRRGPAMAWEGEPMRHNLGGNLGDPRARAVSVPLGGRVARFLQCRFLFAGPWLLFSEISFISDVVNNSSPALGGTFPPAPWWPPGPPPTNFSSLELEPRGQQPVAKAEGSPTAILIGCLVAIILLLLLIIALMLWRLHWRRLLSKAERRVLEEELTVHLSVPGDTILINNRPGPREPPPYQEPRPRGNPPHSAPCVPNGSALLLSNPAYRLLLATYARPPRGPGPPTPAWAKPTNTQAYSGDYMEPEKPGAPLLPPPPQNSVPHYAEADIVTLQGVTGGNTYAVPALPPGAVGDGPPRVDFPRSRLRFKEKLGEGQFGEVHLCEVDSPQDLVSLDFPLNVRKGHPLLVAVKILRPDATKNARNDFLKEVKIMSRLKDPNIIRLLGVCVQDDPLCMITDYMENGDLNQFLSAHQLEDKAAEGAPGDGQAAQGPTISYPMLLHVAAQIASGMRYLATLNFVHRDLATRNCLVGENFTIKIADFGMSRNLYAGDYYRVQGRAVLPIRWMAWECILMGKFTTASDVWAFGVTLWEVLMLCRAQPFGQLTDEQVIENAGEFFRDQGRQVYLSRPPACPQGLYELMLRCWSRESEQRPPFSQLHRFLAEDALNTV
compound,measurement,setting,value
COc1cc(Nc2nc(C)cc(-c3cnn4nc(OC)ccc34)n2)cc(C(F)(F)F)c1,% of control,[1],99%
CC[C@@H]1[C@H](F)C(=O)N[C@@H]1COc1nccc2cc(C(N)=O)c(OC)cc12 [ZIMLOVISERTIB],% of inhibition,[2],-13.2%
same,% of inhibition,[3]; at 0.01 µM,6.6%
same,% of inhibition,[3]; at 0.04 µM,-1.6%
same,% of inhibition,[3]; at 0.2 µM,6.9%
same,% of inhibition,[3]; at 1 µM,12.9%
same,% of inhibition,[3]; at 5 µM,41.7%
C=CC(=O)Nc1cc(-n2c(=O)ccc3cnc4ccc(-c5ccc(NS(C)(=O)=O)cc5)cc4c32)ccc1C,% of control,[4],100%
CN(C(=O)c1cnn2cccnc12)c1cc2c(cc1N1CCOCC1)C(=O)N(C[C@@H](F)C(C)(C)O)C2,dTM,[5],0 K
